We go through 13 compounds from patent publication US20240132525A1, “BORON […], CO[…], METHODS AND USES THEREOF” (priority 2022, published 2024).

Broadly, the IC50 is the concentration needed to halve the response being measured.

Like-named read-outs stand apart in the source and are kept apart here.

Series [1] in a line: Dog LM (liver microsome) assay. It is filed as in vitro ADME. To be noted: Table 3a; predicted clearance as percent of liver blood flow, 1 μM, 1 mg/ml microsomal protein. Summed up:
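Pooled Beagle liver microsomes (1 mg/ml protein), compound 1 μM, Tris pH 7.6 with 5 mM MgCl2, 37 °C, started with 1 mM NADPH; parent loss by LC-MS/MS over several time points.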

Another series relates to IL-31. Kind of series: Cytokine function assay for IL-31 in DH82 cells. It is filed as cell-based, canine. To be noted: Canis lupus familiaris. The protocol: Cytokine Function Assay Protocol for IL-31
The protocol for the cytokine function assay for IL-31 is set forth below: • 1. […] After 24 hr, wash with 37° C. pre-warmed PBS (100 uL/well). • 3. Add serum-free MEM, 90 uL per well, 2 hr, 37° C. • 4. Add 10 uL 10×IL-31 (40, 10, 2.5 ug/mL) in duplicate, 5 min, 37° C. • 5. Remove medium, add 60 uL lysis buffer per well. Agitate on a plate shaker (˜350 rpm) for 10 min at RT. • 6. […] Add 6 uL Acceptor Mix, cover with aluminum foil, quickly spin at 1000 rpm, shake at 120 rpm for 2 min, then incubate at RT for 1 hr. • 8. Add 6 uL Donor Mix, cover with aluminum foil, quickly spin at 1000 rpm, shake at 120 rpm for 2 min, then incubate at RT for 1 hr. • 9. Measure the fluorescence using EnVision™ plate reader.

Another series relates to GM-CSF/pSTAT5. The series can be described thus: Cytokine function assay GM-CSF/pSTAT5 in lysed whole blood cells. To be noted: Whole blood cell, read-out: IC50 GM-CSF. It is filed as cell-based. The protocol:
(§1) Cytokine Function Assay Protocols for IL-4/pSTAT6 and GM-CSF/pSTAT5
GM-CSF/pSTAT5: • Whole blood from a healthy donor was lysed to remove red blood cells. Cells were plated onto a 96 well plate. Compound was added and incubated for 1 hour (at 37° C.). After 1 hour, cells were stimulated with GM-CSF for 15 minutes. Cells were fixed and stained with anti-pSTAT5 antibody. After staining, cells were read on a Beckman-Coulter CytoFLEX.

The next series has as its target JAK1 (Homo sapiens (Human), UniProt P23458). Kind of series: Biochemical kinase assay (33P-ATP filter-binding), JAK1. An excerpt: (§2) Biochemical Kinase Assay Protocol (JAK)
(§3) Reaction Procedure: • 1. […] Detected kinase activity by filter-binding method.

Another series relates to IL-4/pSTAT6. The series can be described thus: Cytokine function assay IL-4/pSTAT6 in PBMC. The format is cell-based. The settings on record: PBMC, read-out: IC50 IL-4, Table 3a. The protocol: as §1
IL-4/pSTAT6: • PBMC from a healthy donor was plated onto a 96 w plate. Compound was added and incubated for 1 hour (at 37° C.). After 1 hour, cells were stimulated with IL-4 for 15 minutes. Cells were fixed and stained with anti-pSTAT6 antibody. After staining, cells were read on a Beckman-Coulter CytoFLEX.

Another series has as its target PDE4B (Homo sapiens (Human), UniProt Q07343). The series can be described thus: PDE4B inhibition. It is filed as biochemical. To be noted: Table 3a.
Another series has as its target JAK2 (Homo sapiens (Human), UniProt O60674). The series can be described thus: Biochemical kinase assay (33P-ATP filter-binding), JAK2.
Excerpt: as §2, §3

Where [2] appears, read: DH82, Table 3a, read-out: IC50 IL-31.

JAK1, sequence (P23458 whole entry, species assumed): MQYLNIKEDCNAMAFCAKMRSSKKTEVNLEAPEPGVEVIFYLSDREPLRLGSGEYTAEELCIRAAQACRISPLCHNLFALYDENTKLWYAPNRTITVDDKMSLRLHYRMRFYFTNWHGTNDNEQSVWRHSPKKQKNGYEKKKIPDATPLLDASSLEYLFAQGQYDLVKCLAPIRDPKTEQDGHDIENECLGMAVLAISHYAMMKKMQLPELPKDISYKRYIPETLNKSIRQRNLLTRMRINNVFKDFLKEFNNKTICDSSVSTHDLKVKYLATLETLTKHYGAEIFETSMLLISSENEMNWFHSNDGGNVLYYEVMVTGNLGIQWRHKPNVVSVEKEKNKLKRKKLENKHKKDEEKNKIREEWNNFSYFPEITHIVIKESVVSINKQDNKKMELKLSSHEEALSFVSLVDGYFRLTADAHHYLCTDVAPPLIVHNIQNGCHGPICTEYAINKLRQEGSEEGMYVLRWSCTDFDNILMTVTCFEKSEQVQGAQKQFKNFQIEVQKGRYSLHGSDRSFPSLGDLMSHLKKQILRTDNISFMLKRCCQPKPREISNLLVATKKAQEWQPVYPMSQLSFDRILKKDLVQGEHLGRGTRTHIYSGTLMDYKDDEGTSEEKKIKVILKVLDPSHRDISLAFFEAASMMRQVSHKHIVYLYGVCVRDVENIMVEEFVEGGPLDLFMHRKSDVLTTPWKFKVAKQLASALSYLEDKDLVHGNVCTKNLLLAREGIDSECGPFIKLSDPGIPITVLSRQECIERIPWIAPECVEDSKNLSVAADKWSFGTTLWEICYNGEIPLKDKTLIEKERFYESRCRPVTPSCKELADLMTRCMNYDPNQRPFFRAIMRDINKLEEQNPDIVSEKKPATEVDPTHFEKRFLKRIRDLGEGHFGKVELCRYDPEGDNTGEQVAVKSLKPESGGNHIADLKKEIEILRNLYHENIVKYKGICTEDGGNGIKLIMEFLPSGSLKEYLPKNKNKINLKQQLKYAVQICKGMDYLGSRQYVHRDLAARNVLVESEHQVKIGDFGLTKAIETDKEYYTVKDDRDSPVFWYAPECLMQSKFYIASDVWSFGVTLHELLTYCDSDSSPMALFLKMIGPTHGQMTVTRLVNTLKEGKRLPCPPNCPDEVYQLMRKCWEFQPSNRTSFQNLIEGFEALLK
PDE4B, sequence (Q07343 whole entry, species assumed): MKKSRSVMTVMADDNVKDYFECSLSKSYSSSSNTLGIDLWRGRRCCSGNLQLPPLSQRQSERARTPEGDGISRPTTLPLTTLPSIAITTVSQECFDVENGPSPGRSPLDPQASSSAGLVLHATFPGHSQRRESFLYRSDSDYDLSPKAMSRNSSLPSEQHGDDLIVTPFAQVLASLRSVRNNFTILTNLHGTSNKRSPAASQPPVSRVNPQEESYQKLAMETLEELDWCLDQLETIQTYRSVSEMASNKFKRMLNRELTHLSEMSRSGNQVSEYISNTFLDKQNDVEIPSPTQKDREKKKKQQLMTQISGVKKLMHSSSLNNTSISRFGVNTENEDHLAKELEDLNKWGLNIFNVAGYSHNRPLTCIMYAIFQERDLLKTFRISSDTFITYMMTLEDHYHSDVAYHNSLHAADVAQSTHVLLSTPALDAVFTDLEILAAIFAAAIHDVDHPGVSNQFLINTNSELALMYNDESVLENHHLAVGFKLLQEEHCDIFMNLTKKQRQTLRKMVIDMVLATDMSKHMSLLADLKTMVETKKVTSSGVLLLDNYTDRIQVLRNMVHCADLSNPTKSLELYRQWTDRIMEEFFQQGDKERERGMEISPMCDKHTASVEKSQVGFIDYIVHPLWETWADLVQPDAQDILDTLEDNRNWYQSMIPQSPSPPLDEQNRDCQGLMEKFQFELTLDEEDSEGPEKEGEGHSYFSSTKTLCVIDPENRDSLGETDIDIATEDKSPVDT
JAK2, sequence (O60674 whole entry, species assumed): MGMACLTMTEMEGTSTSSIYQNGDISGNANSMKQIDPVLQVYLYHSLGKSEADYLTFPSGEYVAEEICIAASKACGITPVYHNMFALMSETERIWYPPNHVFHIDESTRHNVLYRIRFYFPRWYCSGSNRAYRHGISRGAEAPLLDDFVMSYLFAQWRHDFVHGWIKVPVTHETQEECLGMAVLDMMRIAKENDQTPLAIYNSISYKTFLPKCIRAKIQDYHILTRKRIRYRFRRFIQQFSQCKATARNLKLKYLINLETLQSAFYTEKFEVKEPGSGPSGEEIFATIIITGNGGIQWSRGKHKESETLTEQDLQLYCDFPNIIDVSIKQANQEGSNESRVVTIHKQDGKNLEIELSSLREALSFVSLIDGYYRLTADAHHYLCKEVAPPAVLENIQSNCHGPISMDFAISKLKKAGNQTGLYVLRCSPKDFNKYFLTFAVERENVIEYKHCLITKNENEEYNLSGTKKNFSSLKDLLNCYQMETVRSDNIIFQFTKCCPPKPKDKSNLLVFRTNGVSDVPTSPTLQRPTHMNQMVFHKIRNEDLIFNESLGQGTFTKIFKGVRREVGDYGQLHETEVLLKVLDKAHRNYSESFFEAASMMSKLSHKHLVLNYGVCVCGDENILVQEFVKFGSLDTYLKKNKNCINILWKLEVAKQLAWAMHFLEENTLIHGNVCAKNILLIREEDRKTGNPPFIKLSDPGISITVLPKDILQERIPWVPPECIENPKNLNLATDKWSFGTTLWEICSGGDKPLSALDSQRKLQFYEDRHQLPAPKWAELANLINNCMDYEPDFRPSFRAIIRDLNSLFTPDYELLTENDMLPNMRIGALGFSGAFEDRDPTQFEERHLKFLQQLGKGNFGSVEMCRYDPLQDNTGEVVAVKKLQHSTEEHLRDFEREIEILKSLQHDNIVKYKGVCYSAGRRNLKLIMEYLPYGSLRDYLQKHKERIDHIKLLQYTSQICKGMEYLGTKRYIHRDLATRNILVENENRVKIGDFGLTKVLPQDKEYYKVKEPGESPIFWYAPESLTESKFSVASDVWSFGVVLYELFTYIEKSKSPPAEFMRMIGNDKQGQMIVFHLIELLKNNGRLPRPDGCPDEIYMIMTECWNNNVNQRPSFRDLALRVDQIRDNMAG

Turning to `Cc1cnc(Nc2cc(F)c3c(c2)COB3O)nc1NC1COCCC1C#N` (racemic) [Example 029, (trans)-3-((2-((7-fluoro-1-hydroxy-1,3-dihydrobenzo[c][1,2]oxaborol-5-yl)amino)-5-methylpyrimidin-4-yl)amino)tetrahydro-2H-pyran-4-carbonitrile], in series [1], the “Dog LM QH” value is recorded as less than 19.9%. The IC50 in the series on IL-31 (setting [2]) was 49.5 nM; with GM-CSF/pSTAT5 it was 2240 nM; at JAK1 (Table 3a, read-out: IC50 JAK1) it was 0.2 nM; in the series with IL-4/pSTAT6 it was 58.3 nM; at PDE4B, 978 nM; at JAK2 (Table 3a, read-out: IC50 JAK2) it was 9.8 nM.
Consider `N#CC1CCOCC1Nc1nc(Nc2cc(F)c3c(c2)COB3O)ncc1Cl` (stereo not drawn) [Example 050, 3-((5-chloro-2-((7-fluoro-1-hydroxy-1,3-dihydrobenzo[c][1,2]oxaborol-5-yl)amino)pyrimidin-4-yl)amino)tetrahydro-2H-pyran-4-carbonitrile], for which the “Dog LM QH” value in series [1] was less than 19.9%. Besides, the IC50 in the series with IL-31 (setting [2]) came out at 23.9 nM; in the series with GM-CSF/pSTAT5, 2100 nM; on JAK1 (Table 3a, read-out: IC50 JAK1), 0.2 nM; in the series on IL-4/pSTAT6, 94.8 nM; against PDE4B it was 832 nM; at JAK2 (Table 3a, read-out: IC50 JAK2), 1.2 nM.
As to `Cc1cnc(Nc2ccc3c(c2)C(C)(C)OB3O)nc1N[C@@H]1COCC[C@H]1C#N` (relative stereo) [Example 032, (trans)-3-[[2-[(1-hydroxy-3,3-dimethyl-2,1-benzoxaborol-5-yl)amino]-5-methyl-pyrimidin-4-yl]amino]tetrahydropyran-4-carbonitrile], the “Dog LM QH” value in series [1] was 42.0%. The IC50 was 51 nM in the series with IL-31 (DH82, read-out: IC50 IL-31); 901 nM in the series on GM-CSF/pSTAT5; 0.6 nM at JAK1 (Table 3a, read-out: IC50 JAK1); 66.7 nM in the series with IL-4/pSTAT6; 762 nM at PDE4B; 3.3 nM at JAK2 (Table 3a, read-out: IC50 JAK2).
As to `Cc1cnc(Nc2cc3c(c(C(F)(F)F)c2)B(O)OC3)nc1N[C@H]1COC[C@@H]1C#N` (single isomer, unassigned) [Example 043a, (trans)-4-[[2-[[1-hydroxy-7-(trifluoromethyl)-3H-2,1-benzoxaborol-5-yl]amino]-5-methyl-pyrimidin-4-yl]amino]tetrahydrofuran-3-carbonitrile], the “Dog LM QH” value in series [1] was less than 19.9%. Also, the IC50 was determined as 45.4 nM in the series on IL-31 (setting [2]); 4140 nM in the series on GM-CSF/pSTAT5; 0.9 nM at JAK1 (Table 3a, read-out: IC50 JAK1); 267 nM with IL-4/pSTAT6; 23.7 nM at JAK2 (Table 3a, read-out: IC50 JAK2).
In the case of `Cc1cnc(Nc2ccc3c(c2)COB3O)nc1NC1COCCC1C#N` (racemic) [Example 026, (trans)-3-[[2-[(1-hydroxy-3H-2,1-benzoxaborol-5-yl)amino]-5-methyl-pyrimidin-4-yl]amino]tetrahydropyran-4-carbonitrile], in series [1], the “Dog LM QH” value is less than 19.9%. Also, the IC50 in the series with IL-31 (setting [2]) turned out to be 64.6 nM; with GM-CSF/pSTAT5 it was 2660 nM; on JAK1 (Table 3a, read-out: IC50 JAK1), 0.5 nM; with IL-4/pSTAT6 it was 91.9 nM; on JAK2 (Table 3a, read-out: IC50 JAK2) it was 7 nM.
For the compound `Cc1cnc(Nc2cc3c(c(C(F)(F)F)c2)B(O)OC3)nc1NC1CCCCC1C#N` (racemic) [Example 011, (trans)-2-((2-((1-hydroxy-7-(trifluoromethyl)-1,3-dihydrobenzo[c][1,2]oxaborol-5-yl)amino)-5-methylpyrimidin-4-yl)amino)cyclohexane-1-carbonitrile], the “Dog LM QH” value in series [1] is on record as less than 19.9%. For the same compound, the IC50 was found to be 33.6 nM with IL-31 (setting [2]); 1150 nM in the series with GM-CSF/pSTAT5; 0.9 nM at JAK1 (Table 3a, read-out: IC50 JAK1); 159 nM in the series on IL-4/pSTAT6; 37.5 nM at JAK2 (Table 3a, read-out: IC50 JAK2).
`Cc1cnc(Nc2cc3c(c(C(F)(F)F)c2)B(O)OC3)nc1N[C@H]1CCCC[C@@H]1C#N` (single isomer, unassigned) [Example 011a, (trans)-2-((2-((1-hydroxy-7-(trifluoromethyl)-1,3-dihydrobenzo[c][1,2]oxaborol-5-yl)amino)-5-methylpyrimidin-4-yl)amino)cyclohexane-1-carbonitrile]: the “Dog LM QH” value in series [1] is listed as less than 19.9%. Further, the IC50 in the series with IL-31 (setting [2]) was 107 nM; with GM-CSF/pSTAT5, 1480 nM; on JAK1 (Table 3a, read-out: IC50 JAK1) it was 0.4 nM; in the series on IL-4/pSTAT6, 151 nM; at JAK2 (Table 3a, read-out: IC50 JAK2) it was 11.7 nM.
Take `N#C[C@@H]1CCCC[C@H]1Nc1nc(Nc2ccc3c(c2)COB3O)ncc1Cl` (relative stereo) [Example 017, (trans)-2-((5-chloro-2-((1-hydroxy-1,3-dihydrobenzo[c][1,2]oxaborol-5-yl)amino)pyrimidin-4-yl)amino)cyclohexane-1-carbonitrile]: in series [1], the “Dog LM QH” value is less than 19.9%. The IC50 worked out at 35.4 nM in the series with IL-31 (setting [2]); 10000 nM with GM-CSF/pSTAT5; 0.4 nM on JAK1 (Table 3a, read-out: IC50 JAK1); 233 nM with IL-4/pSTAT6; 4.2 nM at JAK2 (Table 3a, read-out: IC50 JAK2).
Take `Cc1cnc(Nc2ccc3c(c2)COB3O)nc1N[C@@H]1COCC[C@H]1C#N` (single isomer, unassigned) [Example 026a, (trans)-3-((2-((1-hydroxy-1,3-dihydrobenzo[c][1,2]oxaborol-5-yl)amino)-5-methylpyrimidin-4-yl)amino)tetrahydro-2H-pyran-4-carbonitrile]: in series [1], the “Dog LM QH” value is on record as less than 19.9%. Also, the IC50 was 21.6 nM in the series with IL-31 (setting [2]); 4240 nM in the series with GM-CSF/pSTAT5; 0.4 nM at JAK1 (IC50 JAK1, Table 3a); 49.7 nM with IL-4/pSTAT6; 972 nM on PDE4B; 1.6 nM on JAK2 (IC50 JAK2, Table 3a).
For `N#C[C@H]1CCOC[C@@H]1Nc1nc(Nc2cc3c(c(C(F)(F)F)c2)B(O)OC3)ncc1Cl` (single isomer, unassigned) [Example 042a, (trans)-3-((5-chloro-2-((1-hydroxy-7-(trifluoromethyl)-1,3-dihydrobenzo[c][1,2]oxaborol-5-yl)amino)pyrimidin-4-yl)amino)tetrahydro-2H-pyran-4-carbonitrile], the “Dog LM QH” value in series [1] is less than 19.9%. For the same compound, the IC50 worked out at 9.7 nM in the series on IL-31 (setting [2]); 2970 nM with GM-CSF/pSTAT5; 0.4 nM at JAK1 (Table 3a, read-out: IC50 JAK1); 148 nM with IL-4/pSTAT6; 7.3 nM at JAK2 (Table 3a, read-out: IC50 JAK2).
As for `Cc1cnc(Nc2cc(C)c3c(c2)COB3O)nc1N[C@@H]1CCC[C@H]1C#N` (relative stereo) [Example 002, (trans)-2-((2-((1-hydroxy-7-methyl-1,3-dihydrobenzo[c][1,2]oxaborol-5-yl)amino)-5-methylpyrimidin-4-yl)amino)cyclopentane-1-carbonitrile], the “Dog LM QH” value in series [1] was less than 19.9%. The IC50 in the series with IL-31 (setting [2]) stood at 23.9 nM; in the series with GM-CSF/pSTAT5, 2100 nM; at JAK1 (Table 3a, read-out: IC50 JAK1) it was 0.9 nM; in the series with IL-4/pSTAT6, 94.8 nM; against PDE4B it was 832 nM; on JAK2 (Table 3a, read-out: IC50 JAK2), 12.1 nM.
With `Cc1cc(Nc2ncc(Cl)c(N[C@H]3COCC[C@@H]3C#N)n2)cc2c1B(O)OC2` (single isomer, unassigned) [Example 041a, (trans)-3-[[5-chloro-2-[(1-hydroxy-7-methyl-3H-2,1-benzoxaborol-5-yl)amino]pyrimidin-4-yl]amino]tetrahydropyran-4-carbonitrile], the “Dog LM QH” value in series [1] is listed as less than 19.9%. Besides, the half-inhibitory concentration (IC50) with IL-31 (setting [2]) was 40 nM; with GM-CSF/pSTAT5, more than 10000 nM; at JAK1 (IC50 JAK1, Table 3a), 0.8 nM; in the series on IL-4/pSTAT6, 47 nM; on JAK2 (IC50 JAK2, Table 3a), 3.1 nM.
Take `Cc1cnc(Nc2cc(F)c3c(c2)COB3O)nc1N[C@@H]1COCC[C@H]1C#N` (single isomer, unassigned) [Example 029a, (trans)-3-[[2-[(7-fluoro-1-hydroxy-3H-2,1-benzoxaborol-5-yl)amino]-5-methyl-pyrimidin-4-yl]amino]tetrahydropyran-4-carbonitrile]: the “Dog LM QH” value in series [1] was less than 19.9%. Moreover, the IC50 with IL-31 (setting [2]) worked out at 19.8 nM; in the series on GM-CSF/pSTAT5 it was 1170 nM; on JAK1 (Table 3a, read-out: IC50 JAK1) it was 0.02 nM; in the series on IL-4/pSTAT6, 48.8 nM; at PDE4B, 381 nM; at JAK2 (Table 3a, read-out: IC50 JAK2) it was 3.7 nM.
